We go through 9 compounds from PubChem BioAssay (NCI).

Molecules are shown by their SMILES.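 Each compound was tested at five concentrations against cells in 96-well plates for 48 hours. TGI denotes the concentration required for complete inhibition of growth.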

Test systems include MCF7 breast; SR leukemia; HOP-92 NSCLC; U251 CNS; MDA-MB-435; HS 578T breast; OVCAR-3 ovarian; RXF 393 renal; MALME-3M melanoma; M14 melanoma; ACHN renal; UACC-257 melanoma; SNB-19 CNS; SK-MEL-5 melanoma; HCC-2998 colon; SF-268 CNS.
Common to all, as to experiment: NCI anticancer screen, dose series, 48 h

Consider `CCOC(=O)C1(Cc2ccccc2)CCN(C(=O)c2ccccc2)C2C1C2(Cl)Cl` (configuration not stated), for which the TGI stood at 71 µM in the test on MCF7 breast; 69.7 µM in the test with SR leukemia; 55.6 µM with HOP-92 NSCLC; 32.6 µM with U251 CNS; 48.3 µM with MDA-MB-435; 71.5 µM in the test with HS 578T breast. The TGI was 47.1 µM in the test on OVCAR-3 ovarian; 36.5 µM with RXF 393 renal; 51.5 µM with MALME-3M melanoma; 34.6 µM with M14 melanoma; 54.8 µM in the test with ACHN renal; 36.3 µM in the test on UACC-257 melanoma. The TGI is greater than 100 µM in the test on SNB-19 CNS, 29.5 µM in the test on SK-MEL-5 melanoma, 30.5 µM in the test on HCC-2998 colon and 91.8 µM in the test with SF-268 CNS.

As for `O=C(CN=C(CN(c1ccccc1)c1ccccc1)Oc1c([N+](=O)[O-])cc([N+](=O)[O-])cc1[N+](=O)[O-])N1CCNCC1`, the TGI in the test on MCF7 breast, in the test on SR leukemia, in the test with HOP-92 NSCLC, in the test on U251 CNS, in the test on MDA-MB-435 and in the test with HS 578T breast was greater than 100 µM each time. Besides, the TGI with OVCAR-3 ovarian, with RXF 393 renal, in the test on MALME-3M melanoma, in the test with M14 melanoma, with ACHN renal and in the test on UACC-257 melanoma was greater than 100 µM each time. Moreover, the TGI in the test on SNB-19 CNS, with SK-MEL-5 melanoma, in the test on HCC-2998 colon and with SF-268 CNS was greater than 100 µM throughout.

As for `COc1ccc2c(-c3ccc(O)cc3)c(Oc3ccccc3)c(=O)oc2c1`, the TGI with MCF7 breast is greater than 100 µM; in the test on SR leukemia, greater than 23.4 µM; in the test with HOP-92 NSCLC it was greater than 87.8 µM; with U251 CNS, greater than 61.5 µM; with MDA-MB-435, greater than 100 µM; with HS 578T breast, 99.1 µM. Also, the TGI in the test on OVCAR-3 ovarian is greater than 100 µM; with RXF 393 renal it was greater than 47.8 µM; with MALME-3M melanoma it was greater than 86.3 µM; in the test on M14 melanoma, greater than 100 µM; with ACHN renal, greater than 85.9 µM; in the test on UACC-257 melanoma, greater than 100 µM. The TGI was greater than 53.7 µM in the test with SNB-19 CNS, greater than 52 µM with SK-MEL-5 melanoma, greater than 69.3 µM with HCC-2998 colon and greater than 100 µM in the test on SF-268 CNS.

On to `OCC1CCCCN1Cc1nc2ccc(Cl)cc2[nH]1` (configuration not stated), for which the TGI in the test with MCF7 breast, in the test with SR leukemia, in the test with HOP-92 NSCLC, in the test on U251 CNS, in the test with MDA-MB-435 and in the test with HS 578T breast was greater than 100 µM each time. The TGI with OVCAR-3 ovarian, with RXF 393 renal, in the test with MALME-3M melanoma, in the test with M14 melanoma, in the test on ACHN renal and in the test on UACC-257 melanoma was greater than 100 µM each time. For the same compound, the TGI in the test with SNB-19 CNS, in the test with SK-MEL-5 melanoma, with HCC-2998 colon and in the test with SF-268 CNS was greater than 100 µM in each case.

As to `C(/C=N/NC1=NCCN1)=N\NC1=NCCN1`, the TGI in the test with MCF7 breast, in the test on SR leukemia, in the test on HOP-92 NSCLC, with U251 CNS, with MDA-MB-435 and with HS 578T breast was greater than 100 µM each time. In addition, the TGI in the test on OVCAR-3 ovarian, in the test on RXF 393 renal, in the test with MALME-3M melanoma, in the test on M14 melanoma, in the test with ACHN renal and in the test on UACC-257 melanoma was greater than 100 µM in each case. The TGI in the test with SNB-19 CNS, with SK-MEL-5 melanoma, with HCC-2998 colon and in the test with SF-268 CNS was greater than 100 µM each time.

Take `CC1=NN(C(=O)CC(=O)Nc2cccc(Cl)c2)C(=O)C1N=Nc1ccc(S(=O)(=O)c2ccc(N=NC3C(=O)N(C(=O)CC(=O)Nc4cccc(Cl)c4)N=C3C)cc2)cc1` (configuration not stated): the TGI with MCF7 breast, in the test on SR leukemia, with HOP-92 NSCLC, with U251 CNS, in the test with MDA-MB-435 and with HS 578T breast was greater than 100 µM throughout. Also, the TGI in the test on OVCAR-3 ovarian, in the test with RXF 393 renal, with MALME-3M melanoma, in the test with M14 melanoma, in the test with ACHN renal and in the test with UACC-257 melanoma was greater than 100 µM in each case. The TGI in the test on SNB-19 CNS, in the test on SK-MEL-5 melanoma, in the test on HCC-2998 colon and with SF-268 CNS was greater than 100 µM throughout.

As for `CCOC(=O)c1cc2cc(CSc3ccccc3)ccc2oc1=O`, the TGI in the test with MCF7 breast, in the test on SR leukemia, in the test on HOP-92 NSCLC, in the test with U251 CNS, in the test with MDA-MB-435 and in the test on HS 578T breast was greater than 100 µM in each case. Also, the TGI in the test with OVCAR-3 ovarian, in the test on RXF 393 renal, in the test with MALME-3M melanoma, in the test on M14 melanoma, in the test with ACHN renal and with UACC-257 melanoma was greater than 100 µM in each case. For the same compound, the TGI with SNB-19 CNS, with SK-MEL-5 melanoma, with HCC-2998 colon and with SF-268 CNS was greater than 100 µM each time.

As for `Cc1ccc(NC(=S)NNC(=O)c2cc(-c3ccccc3)nc3ccccc23)cc1C`, the TGI is 47.8 µM in the test on MCF7 breast; 36.4 µM in the test on SR leukemia; 48.8 µM in the test with HOP-92 NSCLC; 49.4 µM in the test with U251 CNS; 59.5 µM in the test with MDA-MB-435; greater than 100 µM in the test with HS 578T breast. In addition, the TGI is 55.5 µM in the test with RXF 393 renal; 43.6 µM in the test on MALME-3M melanoma; 33.8 µM in the test on M14 melanoma; 67.6 µM with ACHN renal; 60.1 µM in the test with UACC-257 melanoma; 93.2 µM in the test with SNB-19 CNS. Also, the TGI with SK-MEL-5 melanoma was 34.4 µM; with HCC-2998 colon it was 35.2 µM; with SF-268 CNS, greater than 100 µM.

Consider `COc1cccc2c1C(=O)c1ccc3cc(CO)cc(O)c3c1C2=O`, for which the TGI in the test with MCF7 breast was found to be 1.56 µM; in the test on SR leukemia it was 1.31 µM; with HOP-92 NSCLC it was 2.84 µM; in the test on U251 CNS it was 5.41 µM; in the test with MDA-MB-435, 0.359 µM; in the test with HS 578T breast it was 9.59 µM. Besides, the TGI with OVCAR-3 ovarian is 0.497 µM; with RXF 393 renal it was 7.09 µM; in the test on MALME-3M melanoma, 0.202 µM; in the test on M14 melanoma, 1.68 µM; in the test with ACHN renal, 3.7 µM; in the test on UACC-257 melanoma, 0.412 µM. In addition, the TGI in the test with SNB-19 CNS is 5.85 µM; with SK-MEL-5 melanoma, 0.508 µM; in the test on SF-268 CNS, 5.18 µM.
